Results reported in publication PMC11208427, “Magnesium enhances aurintricarboxylic acid’s inhibitory action on the plasma membrane Ca^2+-ATPase” (Scientific Reports, 2024).
pKd: −log10 of the molar value.

Molecular target: T1, plasma membrane Ca2+-ATPase (PMCA), 90% PMCA4b (Homo sapiens, UniProt P23634)
T1 construct: gene ATP2B4
Assay: fluorescence of ATA bound to purified PMCA and quenching of intrinsic Trp fluorescence; also Ca2+-ATPase inhibition (Ki […])
Type: binding

T1 sequence (P23634 1-1205 isoform P23634-6): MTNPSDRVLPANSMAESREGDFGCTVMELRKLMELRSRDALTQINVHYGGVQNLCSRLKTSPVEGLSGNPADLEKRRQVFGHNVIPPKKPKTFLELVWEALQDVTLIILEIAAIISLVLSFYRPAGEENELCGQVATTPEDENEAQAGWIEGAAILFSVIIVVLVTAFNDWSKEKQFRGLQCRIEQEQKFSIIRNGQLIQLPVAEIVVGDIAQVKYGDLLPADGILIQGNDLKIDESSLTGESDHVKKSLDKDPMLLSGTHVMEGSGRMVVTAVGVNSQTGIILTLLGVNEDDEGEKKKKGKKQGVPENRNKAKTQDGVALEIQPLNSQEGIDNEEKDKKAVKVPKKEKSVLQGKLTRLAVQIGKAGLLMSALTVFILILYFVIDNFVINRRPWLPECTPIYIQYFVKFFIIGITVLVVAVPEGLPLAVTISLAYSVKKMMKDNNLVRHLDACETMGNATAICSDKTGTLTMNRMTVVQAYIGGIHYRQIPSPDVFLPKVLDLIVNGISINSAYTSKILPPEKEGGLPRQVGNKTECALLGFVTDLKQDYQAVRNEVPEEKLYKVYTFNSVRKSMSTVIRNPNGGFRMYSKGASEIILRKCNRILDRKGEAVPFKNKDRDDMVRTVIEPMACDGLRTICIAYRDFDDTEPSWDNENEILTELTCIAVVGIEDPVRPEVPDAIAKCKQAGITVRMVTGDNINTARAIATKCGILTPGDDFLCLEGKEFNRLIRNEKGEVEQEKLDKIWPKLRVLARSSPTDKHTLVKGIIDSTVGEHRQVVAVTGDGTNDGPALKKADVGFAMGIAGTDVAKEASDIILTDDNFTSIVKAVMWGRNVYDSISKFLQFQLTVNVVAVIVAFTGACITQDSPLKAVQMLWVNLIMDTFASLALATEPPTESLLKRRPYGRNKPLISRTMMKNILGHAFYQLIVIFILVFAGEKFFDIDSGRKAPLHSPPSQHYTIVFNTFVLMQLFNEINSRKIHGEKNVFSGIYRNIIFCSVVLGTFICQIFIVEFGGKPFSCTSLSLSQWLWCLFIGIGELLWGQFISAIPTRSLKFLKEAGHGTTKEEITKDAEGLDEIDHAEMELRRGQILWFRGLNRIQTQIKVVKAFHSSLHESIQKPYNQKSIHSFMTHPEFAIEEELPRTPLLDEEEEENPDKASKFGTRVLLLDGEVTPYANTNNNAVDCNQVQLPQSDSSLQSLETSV

O=C(O)C1=CC(=C(c2ccc(O)c(C(=O)O)c2)c2ccc(O)c(C(=O)O)c2)C=CC1=O [ATA, aurintricarboxylic acid]
pKd: 6.80
